# Measurements as given in patent US7714006B1, “Methods of modifying the bioavailability of metaxalone” (King Pharmaceuticals Research & Development, Inc., priority 2001, dated 2010).
# Key:
# [1] = Effects of age and gender on PK parameters, 2×400 mg data from studies 103 and 105, fed and fasted; details: human, in vivo
# From the text: This analysis considers the effects of age and gender on three pharmacokinetic (PK) parameters of metaxalone under fed and fasted conditions. The three parameters are: • Cmax: the observed maximum plasma concentration (ng/mL); • AUC(last): the area under the curve (AUC) to the last quantifiable concentration, as measured by the trapezoidal rule (ng-hr/mL); • AUC(inf): the AUC extrapolated to infinity (ng-hr/mL).
# Because the distributions of these parameters tend to be skewed, and in accordance with generally accepted practice, all analyses are carried out after computing the natural logarithm (ln) of the values of the PK parameters from individual subjects.
# (§1) The report is based primarily on two similarly designed studies in which PK parameters were determined under fed and fasted conditions for the 2×400 mg dose of metaxalone: • Study AN151607-103 (hereafter referred to as the 103 study): a four-period, randomized crossover trial with treatment conditions 2×400 mg with food, 2×400 mg without food, 1×800 mg with food, 1×800 mg without food; and • Study ELN151607-105 (hereafter referred to as the 105 study): a two-period, randomized crossover trial with treatment conditions 2×400 mg with food and 2×400 mg without food.
# Using the 2×400 mg data from studies 103 and 105, Section 2.2 presents the results of analyses of the effects of age on the fed values of Cmax, AUC(last), and AUC(inf). Section 2.3 similarly reports the results of analyses of fasted values of these parameters using the 2×400 mg data from these two studies. Section 2.4 repeats the analyses of Sections 2.2 and 2.3 using the data from the 1×800 mg treatment of study 103, in combination with the 2×400 mg data from study 105. Finally, Sections 2.5 and 2.6 report the results of similar analyses using the data from studies 101 and 106, respectively.
# The primary results are based on the results of linear regression models investigating the effects of age on each PK parameter. Descriptive analyses reporting parametric (Pearson) and nonparametric (Spearman) correlation coefficients between age and each PK parameter are also provided. The Pearson correlation coefficient measures the extent of the linear association between two variables and is most appropriate when the data are approximately bivariate normally distributed with no outliers. The Spearman correlation coefficient is based on the ranks of the variables. It is less sensitive to outliers, but is often also a less sensitive measure of the strength of association.
# In study 103, 59 subjects were administered the 2×400 mg dose under fed conditions. The mean age was 26.1 years, with a range from 18 to 50 years. (A total of 64 subjects began the study, of which the average age was 25.6 years. Five subjects were not included in the pharmacokinetic analysis.) In study 105, 44 subjects were administered the 2×400 mg dose under fed conditions. The mean age in study 105 was 56.0 years; with a range from 18 to 81 years.
# First, in the combined group of 59+44=103 subjects, Pearson and Spearman correlation coefficients between age and each of the three PK parameters were computed. The correlation coefficients and two-sided p-values from the test of the null hypothesis of no association are shown below in TABLE IIIa:
# Linear regression models using the natural logarithm of each of the three PK parameters as the dependent variable and age as the independent variable were fitted in order to estimate the magnitude of the associations with age.
# In study 103, the same 59 subjects were administered the 2×400 mg dose under fasted conditions. Similarly, the 44 subjects from study 105 were administered the 2×400 mg dose under fasted conditions.
# First, in the combined group of n=103 subjects, Pearson and Spearman correlations between age and each of the three PK parameters were computed. The correlation coefficients and two-sided p-values from the test of the null hypothesis of no association are shown below in TABLE IVa: […]
# [2] = Effects of age and gender on PK parameters, 1×800 mg data from study 103 and 2×400 mg data from study 105, fed and fasted; type: in vivo, human; details: 1×800 mg (103) + 2×400 mg (105)
# Experimental: as §1
# These analyses are still based on the combined group of n=103 subjects (59 from study 103, 44 from study 105). However, the fed and fasted PK values from the 1×800 dosage of study 103 are used instead of the data from the 2×400 dosage.
# It is possible to somewhat independently assess the consistency of the results from Sections 3.2 and 3.3 by repeating the analyses using the 1×800 fed and fasted results from study 103. These analyses are still based on the combined group of n=103 subjects (59 from study 103, 44 from study 105). However, the fed and fasted PK values from the 1×800 dosage of study 103 are used instead of the data from the 2×400 dosage.
# The same regression modeling strategy as was described in Sections 3.2 and 3.3 was also used. […] The parameter estimates, standard errors, and p-values for the gender and age effects are shown below for the fed and fasted conditions in TABLE XIb: […]
structure (smiles),measurement,setting,value
"Cc1cc(C)cc(OCC2CNC(=O)O2)c1 (stereo not drawn) [metaxalone, 5-[(3,5-dimethylphenoxy)methyl]-2 oxazolidinone]",Percentage increase in AUC(inf) from age 20 to age 70,[1]; both,74%
same,"Percentage increase in AUC(inf), 70-year-old vs 20-year-old",[1]; both,95%
same,Percentage increase in AUC(last) from age 20 to age 70,[1]; both,78%
same,"Percentage increase in AUC(last), 70-year-old vs 20-year-old",[1]; both,98%
same,Percentage increase in Cmax from age 20 to age 70,[1]; both,84%
same,"Percentage increase in Cmax, 70-year-old vs 20-year-old",[1]; both,103%
same,"Pearson correlation coefficients age vs PK parameters, range in magnitude",[1]; female,0.49-0.60
same,Variability of the fasted PK parameters explained by age,[2]; fasted,more than 25%
same,"Pearson correlation, age vs ln(AUC(inf))","[2]; fasted, n=103",0.513
same,"Pearson correlation, age vs ln(AUC(last))","[2]; fasted, n=103",0.522
same,"Pearson correlation, age vs ln(Cmax)","[2]; fasted, n=103",0.600
same,"Spearman correlation, age vs ln(AUC(inf))","[2]; fasted, n=103",0.514
same,"Spearman correlation, age vs ln(AUC(last))","[2]; fasted, n=103",0.522
same,"Spearman correlation, age vs ln(Cmax)","[2]; fasted, n=103",0.635
same,"Pearson correlation, age vs ln(AUC(inf))","[2]; fasted, females n=42",0.582
same,"Pearson correlation, age vs ln(AUC(last))","[2]; fasted, females n=42",0.596
same,"Pearson correlation, age vs ln(Cmax)","[2]; fasted, females n=42",0.607
same,"Spearman correlation, age vs ln(AUC(inf))","[2]; fasted, females n=42",0.596
same,"Spearman correlation, age vs ln(AUC(last))","[2]; fasted, females n=42",0.601
same,"Spearman correlation, age vs ln(Cmax)","[2]; fasted, females n=42",0.638
same,"Pearson correlation, age vs ln(AUC(inf))","[2]; fasted, males n=61",0.441
same,"Pearson correlation, age vs ln(AUC(last))","[2]; fasted, males n=61",0.447
same,"Pearson correlation, age vs ln(Cmax)","[2]; fasted, males n=61",0.567
same,"Spearman correlation, age vs ln(AUC(inf))","[2]; fasted, males n=61",0.499
same,"Spearman correlation, age vs ln(AUC(last))","[2]; fasted, males n=61",0.501
same,"Spearman correlation, age vs ln(Cmax)","[2]; fasted, males n=61",0.599
same,Variability of the fed PK parameters explained by age,[2]; fed,≤ 5%
same,"Pearson correlation, age vs ln(AUC(inf))","[2]; fed, n=103",0.237
same,"Pearson correlation, age vs ln(AUC(last))","[2]; fed, n=103",0.229
same,"Pearson correlation, age vs ln(Cmax)","[2]; fed, n=103",0.040
same,"Spearman correlation, age vs ln(AUC(inf))","[2]; fed, n=103",0.281
same,"Spearman correlation, age vs ln(AUC(last))","[2]; fed, n=103",0.276
same,"Spearman correlation, age vs ln(Cmax)","[2]; fed, n=103",0.086
same,"Pearson correlation, age vs ln(AUC(inf))","[2]; fed, females n=42",0.436
same,"Pearson correlation, age vs ln(AUC(last))","[2]; fed, females n=42",0.408
same,"Pearson correlation, age vs ln(Cmax)","[2]; fed, females n=42",0.258
same,"Spearman correlation, age vs ln(AUC(inf))","[2]; fed, females n=42",0.432
same,"Spearman correlation, age vs ln(AUC(last))","[2]; fed, females n=42",0.410
same,"Spearman correlation, age vs ln(Cmax)","[2]; fed, females n=42",0.202
same,"Pearson correlation, age vs ln(AUC(inf))","[2]; fed, males n=61",0.023
same,"Pearson correlation, age vs ln(AUC(last))","[2]; fed, males n=61",0.022
same,"Pearson correlation, age vs ln(Cmax)","[2]; fed, males n=61",−0.170
same,"Spearman correlation, age vs ln(AUC(inf))","[2]; fed, males n=61",0.187
same,"Spearman correlation, age vs ln(AUC(last))","[2]; fed, males n=61",0.188
same,"Spearman correlation, age vs ln(Cmax)","[2]; fed, males n=61",−0.001
